Literature values as cited in publication PMC10499419 (Clinical and Translational Science, 2023).

Tested on: healthy subjects

**Q.** Which “Tolerability in healthy subjects” value does the source give for `CN1C(=O)[C@@H](NC(=O)c2nnc(Cc3ccccc3)[nH]2)COc2ccccc21` [GSK2982772] here?
**A.** well‐tolerated
